# US10093713B2, “GIP-GLP-1 dual agonist compounds and methods” (priority 2013, dated 2018)
# Like-named read-outs stand apart in the source and are kept apart here. *1 amine or outer side, *2 acyl side, *3 side chain or, on linkers, in order; H or OH if unused. Where a SMILES comes first, the peptide text is derived from it. Side-chain parts run from the residue outwards. [ ]: non-standard residue; d: D form. The star is where a group is joined. C20 diacid = O=C(O)CCCCCCCCCCCCCCCCCCC(=O)*; γGlu = O=C(O)[C@H](CCC(=O)[*:2])N[*:1]; AEEA = NCCOCCOCC(=O)O; Aib = CC(C)(N)C(=O)O
# Columns and labels:
# [1] = target: T1, human GLP-1 R (Homo sapiens, UniProt P43220); test: Human GLP-1 receptor (GLP-1 R) activity assay, cAMP induction (AlphaScreen) in HEK293 cells; format: cell-based
# T1 construct: expressed in transfected cells
# Summary of the method: (§1)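 Stable HEK293 clones expressing human GIP R or GLP-1 R, seeded 1 day before; cells washed in Tyrode's buffer (10 mM HEPES, pH 7.4), stimulated, then lysed. cAMP measured by AlphaScreen bead competition (1 h, room temperature, dark). EC50 = concentration giving half-maximal cAMP elevation, from curves of absolute cAMP (nM) vs log concentration.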
# [2] = target: T2, human GIP R (Homo sapiens, UniProt P48546); test: Human GIP receptor (GIP R) activity assay, cAMP induction (AlphaScreen) in HEK293 cells; format: cell-based; conditions: read-out: hGIP-R cAMP EC50 average value
# T2 construct: expressed in transfected cells
# T2 sequence (P48546 22-466): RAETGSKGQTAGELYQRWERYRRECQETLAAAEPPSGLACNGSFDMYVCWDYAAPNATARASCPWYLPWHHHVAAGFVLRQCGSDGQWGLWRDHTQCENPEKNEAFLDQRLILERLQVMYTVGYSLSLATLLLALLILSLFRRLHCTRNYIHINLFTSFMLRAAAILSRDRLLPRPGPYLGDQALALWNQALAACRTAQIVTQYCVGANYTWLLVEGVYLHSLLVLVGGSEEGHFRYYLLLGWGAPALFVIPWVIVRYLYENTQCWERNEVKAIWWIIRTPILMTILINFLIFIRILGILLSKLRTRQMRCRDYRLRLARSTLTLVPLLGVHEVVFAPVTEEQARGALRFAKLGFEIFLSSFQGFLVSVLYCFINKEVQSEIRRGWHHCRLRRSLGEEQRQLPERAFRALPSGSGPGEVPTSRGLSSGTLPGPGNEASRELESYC
# Summary of the method: as §1
# [3] = Table 2, HEK293 cells expressing human GLP-1 R, read-out: hGLP1-R cAMP EC50 average value
# [4] = Table 2, HEK293 cells expressing human GIP R
# [5] = Table 3, most comprehensive data
# [6] = Table 3, most comprehensive data, read-out: hGLP-1-R cAMP EC50 average value
# T1 sequence (P43220 24-463): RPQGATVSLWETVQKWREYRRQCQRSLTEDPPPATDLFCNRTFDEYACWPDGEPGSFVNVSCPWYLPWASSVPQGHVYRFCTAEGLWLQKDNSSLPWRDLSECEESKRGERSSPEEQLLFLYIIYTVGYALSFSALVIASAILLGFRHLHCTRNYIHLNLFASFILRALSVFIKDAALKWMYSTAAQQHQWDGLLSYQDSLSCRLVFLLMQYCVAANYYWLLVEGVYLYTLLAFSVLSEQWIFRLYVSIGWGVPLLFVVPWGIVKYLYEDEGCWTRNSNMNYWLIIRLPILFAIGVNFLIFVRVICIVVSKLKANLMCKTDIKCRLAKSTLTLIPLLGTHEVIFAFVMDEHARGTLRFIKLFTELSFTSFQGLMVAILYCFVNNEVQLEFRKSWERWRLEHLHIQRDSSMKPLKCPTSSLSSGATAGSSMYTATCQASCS
SMILES,"EC50 [1, 3] [nM]","EC50 [2, 4] [nM]","EC50 [2, 5] [nM]","EC50 [1, 6] [nM]"
CC[C@H](C)[C@H](NC(=O)[C@H](CO)NC(=O)[C@H](Cc1ccc(O)cc1)NC(=O)[C@H](CC(=O)O)NC(=O)[C@H](CO)NC(=O)[C@@H](NC(=O)[C@H](Cc1ccccc1)NC(=O)[C@@H](NC(=O)CNC(=O)[C@H](CCC(=O)O)NC(=O)C(C)(C)NC(=O)[C@@H](N)Cc1ccc(O)cc1)[C@@H](C)O)[C@@H](C)O)C(=O)N[C@@H](C)C(=O)N[C@@H](CC(C)C)C(=O)N[C@@H](CCC(=O)O)C(=O)N[C@@H](CCCCN)C(=O)N[C@@H](CCCCNC(=O)COCCOCCNC(=O)COCCOCCNC(=O)CC[C@H](NC(=O)CCCCCCCCCCCCCCCCCCC(=O)O)C(=O)O)C(=O)N[C@@H](C)C(=O)N[C@@H](CCC(N)=O)C(=O)N[C@@H](CCCNC(=N)N)C(=O)N[C@@H](C)C(=O)N[C@@H](Cc1ccccc1)C(=O)N[C@H](C(=O)N[C@@H](CCC(=O)O)C(=O)N[C@@H](Cc1c[nH]c2ccccc12)C(=O)N[C@@H](CC(C)C)C(=O)N[C@@H](CC(C)C)C(=O)N[C@@H](C)C(=O)N[C@@H](CCC(N)=O)C(=O)N[C@@H](CCCCN)C(N)=O)C(C)C [Compound 25] (H-Y[Aib]EGTFTSDYSIALEKK([AEEA-AEEA-γGlu-C20 diacid])AQRAFVEWLLAQK-NH2),0.011,0.009,0.009,–
CC[C@H](C)[C@H](NC(=O)[C@H](CO)NC(=O)[C@H](CC(C)C)NC(=O)[C@H](CC(=O)O)NC(=O)[C@H](CO)NC(=O)[C@@H](NC(=O)[C@H](Cc1ccccc1)NC(=O)[C@@H](NC(=O)CNC(=O)[C@H](CCC(=O)O)NC(=O)C(C)(C)NC(=O)[C@@H](N)Cc1ccc(O)cc1)[C@@H](C)O)[C@@H](C)O)C(=O)N[C@@H](C)C(=O)N[C@@H](CC(C)C)C(=O)N[C@@H](CCC(=O)O)C(=O)N[C@@H](CCCCN)C(=O)N[C@@H](CCCCNC(=O)COCCOCCNC(=O)COCCOCCNC(=O)CC[C@H](NC(=O)CCCCCCCCCCCCCCCCCCC(=O)O)C(=O)O)C(=O)N[C@@H](C)C(=O)N[C@@H](CCC(N)=O)C(=O)N[C@@H](CCCNC(=N)N)C(=O)N[C@@H](C)C(=O)N[C@@H](Cc1ccccc1)C(=O)N[C@H](C(=O)N[C@@H](CCC(=O)O)C(=O)N[C@@H](Cc1c[nH]c2ccccc12)C(=O)N[C@@H](CC(C)C)C(=O)N[C@@H](CCC(=O)O)C(=O)N[C@@H](C)C(=O)N[C@@H](CCC(N)=O)C(=O)N[C@@H](CCCCN)C(N)=O)C(C)C [Compound 26] (H-Y[Aib]EGTFTSDLSIALEKK([AEEA-AEEA-γGlu-C20 diacid])AQRAFVEWLEAQK-NH2),0.014,–,0.58,–
CC[C@H](C)[C@H](NC(=O)[C@H](CO)NC(=O)[C@H](Cc1ccc(O)cc1)NC(=O)[C@H](CC(=O)O)NC(=O)[C@H](CO)NC(=O)[C@@H](NC(=O)[C@H](Cc1ccccc1)NC(=O)[C@@H](NC(=O)CNC(=O)[C@H](CCC(=O)O)NC(=O)C(C)(C)NC(=O)[C@@H](N)Cc1ccc(O)cc1)[C@@H](C)O)[C@@H](C)O)C(=O)N[C@@H](Cc1ccc(O)cc1)C(=O)N[C@@H](CC(C)C)C(=O)N[C@@H](CCC(=O)O)C(=O)N[C@@H](CCCCN)C(=O)N[C@@H](CCCCNC(=O)COCCOCCNC(=O)COCCOCCNC(=O)CC[C@H](NC(=O)CCCCCCCCCCCCCCCCCCC(=O)O)C(=O)O)C(=O)N[C@@H](C)C(=O)N[C@@H](CCC(N)=O)C(=O)N[C@@H](CCCNC(=N)N)C(=O)N[C@@H](C)C(=O)N[C@@H](Cc1ccccc1)C(=O)N[C@H](C(=O)N[C@@H](CCC(=O)O)C(=O)N[C@@H](Cc1c[nH]c2ccccc12)C(=O)N[C@@H](CC(C)C)C(=O)N[C@@H](CC(C)C)C(=O)N[C@@H](CCCNC(=N)N)C(=O)N[C@@H](C)C(N)=O)C(C)C [Compound 29] (H-Y[Aib]EGTFTSDYSIYLEKK([AEEA-AEEA-γGlu-C20 diacid])AQRAFVEWLLRA-NH2),0.033,0.025,–,–
CC[C@H](C)[C@H](NC(=O)[C@H](CO)NC(=O)[C@H](CC(C)C)NC(=O)[C@H](CC(=O)O)NC(=O)[C@H](CO)NC(=O)[C@@H](NC(=O)[C@H](Cc1ccccc1)NC(=O)[C@@H](NC(=O)CNC(=O)[C@H](CCC(=O)O)NC(=O)C(C)(C)NC(=O)[C@@H](N)Cc1ccc(O)cc1)[C@@H](C)O)[C@@H](C)O)C(=O)N[C@@H](C)C(=O)N[C@@H](CC(C)C)C(=O)N[C@@H](CCC(=O)O)C(=O)N[C@@H](CCCCN)C(=O)N[C@@H](CCCCNC(=O)COCCOCCNC(=O)COCCOCCNC(=O)CC[C@H](NC(=O)CCCCCCCCCCCCCCCCCCC(=O)O)C(=O)O)C(=O)N[C@@H](C)C(=O)N[C@@H](CCC(N)=O)C(=O)N[C@@H](CCCNC(=N)N)C(=O)N[C@@H](C)C(=O)N[C@@H](Cc1ccccc1)C(=O)N[C@H](C(=O)N[C@@H](CCC(=O)O)C(=O)N[C@@H](Cc1c[nH]c2ccccc12)C(=O)N[C@@H](CC(C)C)C(=O)N[C@@H](CC(C)C)C(=O)N[C@@H](C)C(=O)N[C@@H](CCC(N)=O)C(=O)NCC(=O)N1CCC[C@H]1C(=O)N[C@@H](CO)C(=O)N[C@@H](CO)C(=O)NCC(=O)N[C@@H](C)C(=O)N1CCC[C@H]1C(=O)N1CCC[C@H]1C(=O)N1CCC[C@H]1C(=O)N[C@@H](CO)C(N)=O)C(C)C [Compound 33] (H-Y[Aib]EGTFTSDLSIALEKK([AEEA-AEEA-γGlu-C20 diacid])AQRAFVEWLLAQGPSSGAPPPS-NH2),0.014,0.009,0.009,–
CC[C@H](C)[C@H](NC(=O)[C@H](CO)NC(=O)[C@H](Cc1ccc(O)cc1)NC(=O)[C@H](CC(=O)O)NC(=O)[C@H](CO)NC(=O)[C@@H](NC(=O)[C@H](Cc1ccccc1)NC(=O)[C@@H](NC(=O)CNC(=O)[C@H](CCC(=O)O)NC(=O)C(C)(C)NC(=O)[C@@H](N)Cc1ccc(O)cc1)[C@@H](C)O)[C@@H](C)O)C(=O)N[C@@H](Cc1ccc(O)cc1)C(=O)N[C@@H](CC(C)C)C(=O)N[C@@H](CC(=O)O)C(=O)N[C@@H](CCCCN)C(=O)N[C@@H](CCCCNC(=O)COCCOCCNC(=O)COCCOCCNC(=O)CCCCCCCCCCCCCCCCCCC(=O)O)C(=O)N[C@@H](C)C(=O)N[C@@H](CCC(N)=O)C(=O)N[C@@H](CCCNC(=N)N)C(=O)N[C@@H](C)C(=O)N[C@@H](Cc1ccccc1)C(=O)N[C@H](C(=O)N[C@@H](CCC(=O)O)C(=O)N[C@@H](Cc1c[nH]c2ccccc12)C(=O)N[C@@H](CC(C)C)C(=O)N[C@@H](CC(C)C)C(=O)N[C@@H](C)C(=O)N[C@@H](CCC(N)=O)C(=O)NCC(=O)N1CCC[C@H]1C(=O)N[C@@H](CO)C(=O)N[C@@H](CO)C(=O)NCC(=O)N[C@@H](C)C(=O)N1CCC[C@H]1C(=O)N1CCC[C@H]1C(=O)N1CCC[C@H]1C(=O)N[C@@H](CO)C(N)=O)C(C)C [Compound 35] (H-Y[Aib]EGTFTSDYSIYLDKK([AEEA-AEEA-C20 diacid])AQRAFVEWLLAQGPSSGAPPPS-NH2),–,–,0.016,0.012
CC[C@H](C)[C@H](NC(=O)[C@H](CO)NC(=O)[C@H](Cc1ccc(O)cc1)NC(=O)[C@H](CC(=O)O)NC(=O)[C@H](CO)NC(=O)[C@@H](NC(=O)[C@H](Cc1ccccc1)NC(=O)[C@@H](NC(=O)CNC(=O)[C@H](CCC(=O)O)NC(=O)C(C)(C)NC(=O)[C@@H](N)Cc1ccc(O)cc1)[C@@H](C)O)[C@@H](C)O)C(=O)N[C@@H](Cc1ccc(O)cc1)C(=O)N[C@@H](CC(C)C)C(=O)N[C@@H](CC(=O)O)C(=O)N[C@@H](CCCCN)C(=O)N[C@@H](CCCCNC(=O)CC[C@H](NC(=O)CCCCCCCCCCCCCCCCCCC(=O)O)C(=O)O)C(=O)N[C@@H](C)C(=O)N[C@@H](CCC(N)=O)C(=O)N[C@@H](CCCNC(=N)N)C(=O)N[C@@H](C)C(=O)N[C@@H](Cc1ccccc1)C(=O)N[C@H](C(=O)N[C@@H](CCC(=O)O)C(=O)N[C@@H](Cc1c[nH]c2ccccc12)C(=O)N[C@@H](CC(C)C)C(=O)N[C@@H](CC(C)C)C(=O)N[C@@H](C)C(=O)N[C@@H](CCC(N)=O)C(=O)NCC(=O)N1CCC[C@H]1C(=O)N[C@@H](CO)C(=O)N[C@@H](CO)C(=O)NCC(=O)N[C@@H](C)C(=O)N1CCC[C@H]1C(=O)N1CCC[C@H]1C(=O)N1CCC[C@H]1C(=O)N[C@@H](CO)C(N)=O)C(C)C [Compound 36] (H-Y[Aib]EGTFTSDYSIYLDKK([γGlu-C20 diacid])AQRAFVEWLLAQGPSSGAPPPS-NH2),–,–,0.01,0.015
